From ChEMBL document CHEMBL1629523, “Synthesis and antibacterial activity of C-12 pyrazolinyl spiro ketolides” (2010) come the findings set out here.

The structures appear in SMILES notation. Values after ≈ are worked out from the molar mass of the structure shown.

What all share (type): functional
Test [1] concerns Streptococcus pneumoniae. In words: Antibacterial activity against erythromycin-resistant Streptococcus pneumoniae 673 by broth microdilution method.
For test [2], the system named is Haemophilus influenzae. In words: Antibacterial activity against erythromycin-susceptible Haemophilus influenzae 5096 by broth microdilution method.
In test [3] the test system is Haemophilus influenzae. Kind of test: Antibacterial activity against erythromycin-resistant Haemophilus influenzae 2412 by broth microdilution method.
For test [4], the system named is Staphylococcus aureus. In words: Antibacterial activity against erythromycin-susceptible Staphylococcus aureus 26001 by broth microdilution method.
In test [5] the test system is Streptococcus pneumoniae. In words: Antibacterial activity against erythromycin-resistant Streptococcus pneumoniae 1210 by broth microdilution method.
Test [6] deals with Staphylococcus aureus. Kind of test: Antibacterial activity against erythromycin-susceptible Staphylococcus aureus ATCC 29213 by broth microdilution method.
The subject of test [7] is Staphylococcus aureus. Kind of test: Antibacterial activity against erythromycin-resistant Staphylococcus aureus 5676 by broth microdilution method.
For test [8], the system named is Staphylococcus aureus. Kind of test: Antibacterial activity against erythromycin-susceptible Staphylococcus aureus ATCC 6538p by broth microdilution method.
Test [9] relates to Streptococcus pneumoniae. In words: Antibacterial activity against erythromycin-susceptible Streptococcus pneumoniae 2860 by broth microdilution method.
The test system of test [10] is Staphylococcus aureus. Kind of test: Antibacterial activity against erythromycin-resistant Staphylococcus aureus AD-08 by broth microdilution method.
Test [11] concerns Staphylococcus aureus. Kind of test: Antibacterial activity against erythromycin-resistant Staphylococcus aureus 5677 by broth microdilution method.
For test [12], the system named is Streptococcus pneumoniae. Kind of test: Antibacterial activity against erythromycin-resistant Streptococcus pneumoniae 5158 by broth microdilution method.

Consider `CC[C@H]1OC(=O)[C@H](C)C(=O)[C@H](C)[C@@H](O[C@@H]2O[C@H](C)C[C@H](N(C)C)[C@H]2O)[C@@](C)(OC)C[C@@H](C)C(=O)[C@H](C)[C@@H](O)C12C=NNC2` (some centres not stated), for which the MIC against Streptococcus pneumoniae [1] was above 64 µg/mL; in the test on Haemophilus influenzae [2], 0.06 µg/mL (≈ 0.0981 µM); in the test on Haemophilus influenzae [3] it was above 8 µg/mL; against Staphylococcus aureus [4], 0.12 µg/mL (≈ 0.196 µM); in the test with Streptococcus pneumoniae [5], above 64 µg/mL; in the test on Staphylococcus aureus [6], 0.25 µg/mL (≈ 0.409 µM). In addition, the MIC was 4 µg/mL (≈ 6.54 µM) against Staphylococcus aureus [7]; 0.25 µg/mL (≈ 0.409 µM) against Staphylococcus aureus [8]; 0.5 µg/mL (≈ 0.817 µM) against Streptococcus pneumoniae [9]; 512 µg/mL (≈ 837 µM) against Staphylococcus aureus [10]; 8 µg/mL (≈ 13.1 µM) against Staphylococcus aureus [11]; above 64 µg/mL against Streptococcus pneumoniae [12].

As for `CC[C@H]1OC(=O)[C@H](C)C(=O)[C@H](C)[C@@H](O[C@@H]2O[C@H](C)C[C@H](N(C)C)[C@H]2O)[C@](C)(OC)C[C@@H](C)C(=O)[C@H](C)[C@@H](O)C12C=NNC2C` (some centres not stated), the MIC is above 64 µg/mL with Streptococcus pneumoniae [1]; 0.06 µg/mL (≈ 0.0959 µM) against Haemophilus influenzae [2]; above 8 µg/mL in the test with Haemophilus influenzae [3]; 0.12 µg/mL (≈ 0.192 µM) in the test with Staphylococcus aureus [4]; above 64 µg/mL with Streptococcus pneumoniae [5]; 0.5 µg/mL (≈ 0.799 µM) against Staphylococcus aureus [6]. Moreover, the MIC in the test on Staphylococcus aureus [7] was 8 µg/mL (≈ 12.8 µM); against Staphylococcus aureus [8], 0.25 µg/mL (≈ 0.399 µM); in the test on Streptococcus pneumoniae [9], 0.5 µg/mL (≈ 0.799 µM); in the test on Staphylococcus aureus [10], 512 µg/mL (≈ 818 µM); in the test with Staphylococcus aureus [11] it was 8 µg/mL (≈ 12.8 µM); in the test on Streptococcus pneumoniae [12] it was above 64 µg/mL.

Take `CCOC(=O)C1NN=CC12[C@H](O)[C@@H](C)C(=O)[C@H](C)C[C@@](C)(OC)[C@H](O[C@@H]1O[C@H](C)C[C@H](N(C)C)[C@H]1O)[C@@H](C)C(=O)[C@@H](C)C(=O)O[C@@H]2CC` (some centres not stated): the MIC with Streptococcus pneumoniae [1] is 8 µg/mL (≈ 11.7 µM); against Haemophilus influenzae [2] it was 0.06 µg/mL (≈ 0.0877 µM); against Haemophilus influenzae [3] it was above 8 µg/mL; in the test with Staphylococcus aureus [4], 0.12 µg/mL (≈ 0.175 µM); against Streptococcus pneumoniae [5] it was above 64 µg/mL; against Staphylococcus aureus [6], 0.12 µg/mL (≈ 0.175 µM). Also, the MIC against Staphylococcus aureus [7] was 8 µg/mL (≈ 11.7 µM); in the test with Staphylococcus aureus [8], 0.12 µg/mL (≈ 0.175 µM); in the test on Streptococcus pneumoniae [9] it was 0.5 µg/mL (≈ 0.731 µM); in the test with Staphylococcus aureus [10] it was 512 µg/mL (≈ 749 µM); with Staphylococcus aureus [11], 8 µg/mL (≈ 11.7 µM); with Streptococcus pneumoniae [12], 8 µg/mL (≈ 11.7 µM).

Consider `CC[C@H]1OC(=O)[C@H](C)C(=O)[C@H](C)[C@@H](O[C@@H]2O[C@H](C)C[C@H](N(C)C)[C@H]2O)[C@](C)(OC)C[C@@H](C)C(=O)[C@H](C)[C@@H](O)C12C=NNC2C(=O)OC` (some centres not stated), for which the MIC in the test with Streptococcus pneumoniae [1] was 8 µg/mL (≈ 11.9 µM); with Haemophilus influenzae [2], 0.06 µg/mL (≈ 0.0896 µM); in the test with Haemophilus influenzae [3], above 8 µg/mL; with Staphylococcus aureus [4], 0.03 µg/mL (≈ 0.0448 µM); in the test with Streptococcus pneumoniae [5] it was above 64 µg/mL; with Staphylococcus aureus [6], 0.12 µg/mL (≈ 0.179 µM). Besides, the MIC against Staphylococcus aureus [7] amounted to 4 µg/mL (≈ 5.97 µM); against Staphylococcus aureus [8], 0.12 µg/mL (≈ 0.179 µM); in the test with Streptococcus pneumoniae [9], 0.5 µg/mL (≈ 0.746 µM); in the test with Staphylococcus aureus [10], 256 µg/mL (≈ 382 µM); in the test with Staphylococcus aureus [11], 4 µg/mL (≈ 5.97 µM); with Streptococcus pneumoniae [12], 8 µg/mL (≈ 11.9 µM).

`CC[C@H]1OC(=O)[C@H](C)[C@@H](O[C@H]2C[C@@](C)(OC)[C@@H](O)[C@H](C)O2)[C@H](C)[C@@H](O[C@@H]2O[C@H](C)C[C@H](N(C)C)[C@H]2O)[C@](C)(OC)C[C@@H](C)C(=O)[C@H](C)[C@@H](O)[C@]1(C)O` [CLARITHROMYCIN]: the MIC against Streptococcus pneumoniae [1] was above 16 µg/mL; with Haemophilus influenzae [2], 0.06 µg/mL (≈ 0.0802 µM); in the test on Haemophilus influenzae [3] it was 8 µg/mL (≈ 10.7 µM); in the test on Staphylococcus aureus [4], at most 0.063 µg/mL; in the test with Streptococcus pneumoniae [5] it was above 16 µg/mL; against Staphylococcus aureus [6], 0.25 µg/mL (≈ 0.334 µM). Moreover, the MIC against Staphylococcus aureus [7] is above 1020 µg/mL; against Staphylococcus aureus [8], 0.5 µg/mL (≈ 0.668 µM); against Streptococcus pneumoniae [9] it was 0.125 µg/mL (≈ 0.167 µM); in the test with Staphylococcus aureus [10] it was above 1020 µg/mL; with Staphylococcus aureus [11], above 1020 µg/mL; in the test with Streptococcus pneumoniae [12] it was above 16 µg/mL.

In the case of `CC[C@H]1OC(=O)[C@H](C)[C@@H](O[C@H]2C[C@@](C)(OC)[C@@H](O)[C@H](C)O2)[C@H](C)[C@@H](O[C@@H]2O[C@H](C)C[C@H](N(C)C)[C@H]2O)[C@](C)(O)C[C@@H](C)C(=O)[C@H](C)[C@@H](O)[C@]1(C)O` [ERYTHROMYCIN], the MIC is above 32 µg/mL against Streptococcus pneumoniae [1]; 0.06 µg/mL (≈ 0.0818 µM) against Haemophilus influenzae [2]; 4 µg/mL (≈ 5.45 µM) with Haemophilus influenzae [3]; at most 0.063 µg/mL in the test with Staphylococcus aureus [4]; above 32 µg/mL with Streptococcus pneumoniae [5]; 0.5 µg/mL (≈ 0.681 µM) against Staphylococcus aureus [6]. Moreover, the MIC against Staphylococcus aureus [7] was above 1020 µg/mL; in the test on Staphylococcus aureus [8] it was 0.5 µg/mL (≈ 0.681 µM); with Streptococcus pneumoniae [9], 0.25 µg/mL (≈ 0.341 µM); against Staphylococcus aureus [10] it was above 1020 µg/mL; in the test with Staphylococcus aureus [11], above 1020 µg/mL; in the test with Streptococcus pneumoniae [12], above 32 µg/mL.
